We go through ten molecules from ChEMBL document CHEMBL1201862, “PubChem BioAssay data set” (2004).

Values joined by “and” are separate entries in the source; they are usually repeats but may differ in a detail not shown here. Identical values can stand only once.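 How tested: cells in 96-well plates exposed to compound for 48 hours at five concentrations. GI50 is the concentration that inhibits growth by half.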 Active and inactive are the calls of the source. Cut-off read from the data, not from the text of the source: active = GI50 up to about 1.1 µM and inactive = higher.

Test systems include OVCAR-4; HT-29; UO-31; M14; Malme-3M; SK-MEL-2; SW-620; CCRF-CEM; EKVX; T47D; MOLT-4; HOP-62; OVCAR-8; SR; RPMI-8226; U-251; NCI-H460; COLO 205; OVCAR-5; HCC 2998.
What all share (assay): NCI-60 cell line screen, 48 h

Turning to `CCOC(=O)CCC(C(=O)OCC)n1nnc2cc(Nc3c(C)[n+]([O-])c4cc(F)c(OCC)cc4[n+]3[O-])ccc21` (stereo unspecified), the GI50 with OVCAR-4 was > 100 µM (inactive); with HT-29, > 100 µM (inactive); with UO-31 it was > 100 µM (inactive); in the test on M14, > 100 µM (inactive); in the test on Malme-3M it was > 100 µM (inactive); in the test with SK-MEL-2 it was 83.4 µM (inactive). Besides, the GI50 in the test with SW-620 is > 100 µM (inactive); in the test on CCRF-CEM, > 100 µM (inactive); in the test on EKVX, > 100 µM (inactive); in the test on T47D it was > 100 µM (inactive); with MOLT-4 it was > 100 µM (inactive); in the test with HOP-62, 22.2 µM (inactive). Further, the GI50 is 87.1 µM (inactive) with OVCAR-8; > 100 µM (inactive) in the test with SR; > 100 µM (inactive) with RPMI-8226; 30.7 µM (inactive) in the test on U-251; > 100 µM (inactive) with NCI-H460; > 100 µM (inactive) with COLO 205. The GI50 in the test with OVCAR-5 was > 100 µM (inactive).
As to `CSc1ccn(C2CC(F)C(CO)O2)c(=O)n1` (stereo unspecified), the GI50 with OVCAR-4, in the test with HT-29, with UO-31, with M14, in the test with Malme-3M and in the test on SK-MEL-2 was > 100 µM (inactive) each time. In addition, the GI50 in the test with SW-620, in the test on CCRF-CEM, with EKVX, in the test on T47D, in the test on MOLT-4 and with HOP-62 was > 100 µM (inactive) in each case. The GI50 in the test on OVCAR-8, in the test with SR, in the test with U-251, with NCI-H460, in the test with HCC 2998 and in the test with COLO 205 was > 100 µM (inactive) throughout. Further, the GI50 with OVCAR-5 is > 100 µM (inactive).
Consider `Cc1cc2c(cc1Cl)SC(NNCCO)=NS2(=O)=O`, for which the GI50 in the test on OVCAR-4, in the test on HT-29, with UO-31, with M14, in the test on SK-MEL-2 and with SW-620 was > 100 µM (inactive) throughout. The GI50 with CCRF-CEM, in the test with EKVX, in the test on T47D, in the test on MOLT-4, in the test on HOP-62 and with OVCAR-8 was > 100 µM (inactive) throughout. For the same molecule, the GI50 in the test on SR, in the test on RPMI-8226, in the test on U-251, in the test with NCI-H460, in the test on HCC 2998 and in the test with COLO 205 was > 100 µM (inactive) throughout.
As for `O=C1OC(C2(O)OC(=O)c3ccccc32)c2ccccc21` (stereo unspecified), the GI50 in the test with OVCAR-4, in the test on HT-29, in the test on UO-31, with M14, with SK-MEL-2 and in the test on SW-620 was > 100 µM (inactive) in each case. Also, the GI50 in the test on EKVX was 62.4 µM (inactive); with T47D it was > 100 µM (inactive); with MOLT-4, > 100 µM (inactive); with HOP-62, > 100 µM (inactive); with OVCAR-8, > 100 µM (inactive); in the test on SR it was > 100 µM (inactive). The GI50 in the test on RPMI-8226, with U-251, in the test on NCI-H460, in the test on HCC 2998, in the test on COLO 205 and with OVCAR-5 was > 100 µM (inactive) throughout.
For the molecule `CC(=O)OC1CC2(C)C(=CC1C1SCCS1)CCC1C2CCC2(C)C(OC(C)=O)CCC12` (stereo unspecified), the GI50 was > 100 µM (inactive) in the test with OVCAR-4; > 100 µM (inactive) in the test with HT-29; > 100 µM (inactive) in the test with UO-31; > 100 µM (inactive) in the test on M14; > 100 µM (inactive) in the test with Malme-3M; 45.4 µM (inactive) with SK-MEL-2. Also, the GI50 in the test on SW-620 was > 100 µM (inactive); with CCRF-CEM, > 100 µM (inactive); in the test with EKVX it was > 100 µM (inactive); with T47D, > 100 µM (inactive); in the test on MOLT-4 it was > 100 µM (inactive); in the test on HOP-62 it was 97.5 µM (inactive). Besides, the GI50 in the test on OVCAR-8 is > 100 µM (inactive); in the test on SR it was > 100 µM (inactive); in the test on RPMI-8226 it was > 100 µM (inactive); in the test on U-251, 32.3 µM (inactive); in the test on NCI-H460, > 100 µM (inactive); in the test with COLO 205, > 100 µM (inactive). Besides, the GI50 in the test with OVCAR-5 was > 100 µM (inactive).
Turning to `OC(Cc1cccc2ccccc12)CN1CCC(c2ccccc2)CC1` (stereo unspecified), the GI50 in the test on HT-29 was 11.2 µM (inactive); in the test on UO-31, 0.0241 µM (active); in the test with M14 it was 13.8 µM (inactive); with SW-620 it was 15 µM (inactive); in the test on CCRF-CEM, 18.5 µM (inactive); in the test with EKVX, 14 µM (inactive). Also, the GI50 in the test on T47D is 14.3 µM (inactive); in the test on HOP-62 it was 15.8 µM (inactive); in the test with OVCAR-8, 16.8 µM (inactive); with SR, 10.8 µM (inactive); in the test on RPMI-8226, 8.13 µM (inactive); in the test with U-251, 13.4 µM (inactive). Further, the GI50 in the test on NCI-H460 was 13.9 µM (inactive); with HCC 2998, 2.56 µM (inactive); in the test on COLO 205, 13 µM (inactive); in the test with OVCAR-5, 13.7 µM (inactive).
Turning to `COC1OC(COC(=O)NCCCCC(=O)C(F)(F)C(F)(F)C(F)(F)C(F)(F)C(F)(F)C(F)(F)C(F)(F)F)C(O)C(O)C1O` (stereo unspecified), the GI50 was 15 µM (inactive) and 16.7 µM (inactive) in the test on OVCAR-4; 15.8 µM (inactive) and 13.5 µM (inactive) in the test with HT-29; 16.8 µM (inactive) and 17.1 µM (inactive) with UO-31; 14.8 µM (inactive) and 16 µM (inactive) in the test with M14; 22.8 µM (inactive) and 20.1 µM (inactive) in the test with Malme-3M; 22.2 µM (inactive) and 21.8 µM (inactive) in the test with SK-MEL-2. Also, the GI50 in the test on SW-620 is 17.1 µM (inactive) and 15.8 µM (inactive); with T47D, 19.6 µM (inactive) and 15.2 µM (inactive); with HOP-62 it was 15 µM (inactive) and 16.2 µM (inactive); in the test with SR, 30.3 µM (inactive) and 42.9 µM (inactive); with RPMI-8226, 28.9 µM (inactive) and 29.9 µM (inactive); in the test with U-251, 19.3 µM (inactive) and 11.9 µM (inactive). Also, the GI50 in the test on NCI-H460 is 22.4 µM (inactive) and 16.8 µM (inactive); in the test with HCC 2998, 19.6 µM (inactive) and 19.5 µM (inactive); with COLO 205, 25.9 µM (inactive) and 21.8 µM (inactive); with OVCAR-5, 17.8 µM (inactive) and 17.5 µM (inactive).
As to `CC(=O)CCC(=O)CC(O)(C(F)(F)F)C(F)(F)F`, the GI50 is 19.7 µM (inactive) in the test with OVCAR-4; 17.8 µM (inactive) in the test on HT-29; 14.5 µM (inactive) in the test with UO-31; 19.9 µM (inactive) in the test with M14; 16.7 µM (inactive) with Malme-3M; 21.6 µM (inactive) with SW-620. Besides, the GI50 with CCRF-CEM is 21.6 µM (inactive); in the test with EKVX, > 10 µM (inactive); with T47D, 11.4 µM (inactive); in the test on MOLT-4, 17.9 µM (inactive); in the test with HOP-62, 17.9 µM (inactive); with OVCAR-8, 19.6 µM (inactive). Also, the GI50 was 16.4 µM (inactive) in the test with SR; 17.2 µM (inactive) in the test with RPMI-8226; 17.2 µM (inactive) in the test with U-251; 20.7 µM (inactive) with NCI-H460; 18.4 µM (inactive) with HCC 2998; 17.9 µM (inactive) in the test on COLO 205. Also, in the test with OVCAR-5, the GI50 is 12.9 µM (inactive).
As to `C=C1C2CCC3C4(C)CCCC(C)(C(=O)O)C4CCC3(C2)C1OC(=O)/C(C)=C/C` (stereo unspecified), the GI50 in the test with OVCAR-4 is 41.6 µM (inactive); in the test on HT-29 it was 33.4 µM (inactive); in the test with UO-31 it was 21 µM (inactive); with M14 it was 20.8 µM (inactive); in the test with Malme-3M, 30 µM (inactive); in the test on SK-MEL-2, 36.1 µM (inactive). Moreover, the GI50 with SW-620 was 61.7 µM (inactive); in the test on CCRF-CEM it was 53.2 µM (inactive); with EKVX, 35.1 µM (inactive); in the test on T47D, 43 µM (inactive); in the test with HOP-62, 45.6 µM (inactive); with OVCAR-8, 32.7 µM (inactive). In addition, the GI50 was 2.98 µM (inactive) with SR; 30.7 µM (inactive) in the test on U-251; 34.6 µM (inactive) with NCI-H460; 26.7 µM (inactive) in the test with HCC 2998; 29.6 µM (inactive) in the test on COLO 205; 28.4 µM (inactive) in the test with OVCAR-5.
Take `CCCCCCCCCCC(O)C1CCC(C2CCC(C(O)CCCCC(O)CCCCCC(O)CC3=CC(C)OC3=O)O2)O1` (stereo unspecified): the GI50 was > 25 µM (inactive) with OVCAR-4; 3.21 µM (inactive) in the test on HT-29; > 25 µM (inactive) with UO-31; > 25 µM (inactive) in the test on M14; > 25 µM (inactive) with Malme-3M; > 25 µM (inactive) in the test on SK-MEL-2. The GI50 was > 25 µM (inactive) in the test with SW-620; 4.09 µM (inactive) in the test on EKVX; > 11.8 µM (inactive) in the test on T47D; 2.97 µM (inactive) with MOLT-4; > 25 µM (inactive) with HOP-62; 4.51 µM (inactive) in the test with OVCAR-8. For the same molecule, the GI50 was 0.0218 µM (active) in the test on SR; > 16.4 µM (inactive) with RPMI-8226; > 25 µM (inactive) with U-251; 6.93 µM (inactive) in the test with NCI-H460; > 25 µM (inactive) in the test with HCC 2998; > 25 µM (inactive) with COLO 205. Besides, in the test on OVCAR-5, the GI50 was > 25 µM (inactive).
